{"source": "patent US9393226B2", "about": "“Use of osthole for treating focal segmental glomerulosclerosis” (National Defense Medical Center, priority 2014, dated 2016)", "format_in_all_cases": "in vivo, BALB/c mice", "key": {"[1]": {"tested_on": "adriamycin induced FSGS mice", "test": "Analysis of urine protein and renal function in mouse FSGS model", "details": "osthole 30 mg/kg daily intraperitoneal, vs pathological control group", "experimental": "(§1) Experiments were performed on 8-week-old female BALB/c mice. The mice were separated into 3 groups at 8-weeks old. One of the groups were injected intravenously with normal saline to be used as normal controls, where the pathological control group and the osthole treated group were intravenously injected with a single dose of adriamycin (0.1 mg/10 g body weight) to induce FSGS, wherein the osthole treated group is intraperitoneally injected with osthole at a daily dose of 30 mg/kg body weight starting from 6 hours before FSGS induction by adriamycin. After intravenous injection of adriamycin, osthole was continuously given to the osthole treated group through intraperitoneal injection with a daily dose of 30 mg/kg body weight until they were sacrificed 28 days after FSGS induction. The pathological control group were given vehicle by intraperitoneal injection in the same fashion. Urine samples were collected in metabolic cages on days 3, 7, 14, and 21. Mice were sacrificed at day 7 or 28 post disease induction. Renal cortical tissues, spleen and serum were collected and stored properly for further analysis. Mice urine samples were collected by metabolic cages. Proteinuria was first tested with test paper, following the measurement of protein concentration with BCA Protein Assay Kit (PIERCE), where the urinary protein index was illustrated by 24-hour proteinuria (urinary protein concentration/urinary creatinine concentration). In addition, blood was collected through the eye socket, after separation, serum specimen was obtained, which was absorbed into Fuji Ori-Chem Slide and measured by machine (Fuji Photo Film Co., Tokyo, Japan) to read the data."}, "[2]": {"tested_on": "adriamycin induced FSGS mice", "test": "Pathologic evaluation of kidney sections (H&E) in mouse FSGS model", "details": "osthole 30 mg/kg daily intraperitoneal; 7th and 28th day; FIG. 2", "experimental": "as §1, with “[…] Renal pathology was examined under optical microscope and renal lesions was scored. or EPHLs and sclerosis, at least 50 glomeruli in sections” for “Mice urine samples”, “examined for each mouse.” for “collected by metabolic cages. Proteinuria was first tested with test paper, following the measurement of protein concentration with BCA Protein Assay Kit (PIERCE), where the urinary protein index was illustrated by 24-hour proteinuria (urinary protein concentration/urinary creatinine concentration). In addition, blood was collected through the eye socket, after separation, serum specimen was obtained, which was absorbed into Fuji Ori-Chem Slide and measured by machine (Fuji Photo Film Co., Tokyo, Japan) to read the data.”"}, "[3]": {"tested_on": "adriamycin induced FSGS mice", "test": "Evaluation of renal fibrosis (collagen IV IHC, Sirius red staining) in mouse FSGS model", "details": "osthole 30 mg/kg daily intraperitoneal", "experimental": "as §1, with “analysis.” for “analysis. Mice urine samples were collected by metabolic cages. Proteinuria was first tested with test paper, following the measurement of protein concentration with BCA Protein Assay Kit (PIERCE), where the urinary protein index was illustrated by 24-hour proteinuria (urinary protein concentration/urinary creatinine concentration).”, “immunohistochemistry” for “blood”, “also performed. […] A quantitative image analysis software Pax-it; […], Villa Park, Ill., USA) was used to analyze” for “collected through”, “staining results.” for “eye socket, after separation, serum specimen was obtained, which was absorbed into Fuji Ori-Chem Slide and measured by machine (Fuji Photo Film Co., Tokyo, Japan) to read the data.”"}, "[4]": {"tested_on": "ROS (superoxide anion)", "test": "Reactive oxygen species (ROS) determination in mouse FSGS model", "details": "osthole 30 mg/kg daily intraperitoneal, 28th day", "experimental": "Experiments were performed on 8-week-old female BALB/c mice. The mice were separated into 3 groups at 8-weeks old. One of the groups were injected intravenously with normal saline to be used as normal controls, where the pathological control group and the osthole treated group were intravenously injected with a single dose of adriamycin (0.1 mg/10 g body weight) to induce FSGS, wherein the osthole treated group is intraperitoneally injected with osthole at a daily dose of 30 mg/kg body weight starting from 6 hours before FSGS induction by adriamycin. After intravenous injection of adriamycin, osthole was continuously given to the osthole treated group through intraperitoneal injection with a daily dose of 30 mg/kg body weight until they were sacrificed 28 days after FSGS induction. The pathological control group were given vehicle by intraperitoneal injection in the same fashion. Urine samples were collected in metabolic cages on days 3, 7, 14, and 21. […] Lucigenin was used to react with the ROS in urine, and detected with Hidex microplate luminometer (Finland), the results were represented as reactive luminescence units (RLU) per 15 min per milligram dry weight (i.e., RLU/15 min/mg dry weight). ROS in kidney tissues were detected with dihydroethidium (DHE), and quantitation was done by determining the ratio of signal positive nucleus/total nucleus in each kidney trans-section."}, "[5]": {"tested_on": "Nrf2 pathway", "test": "Anti-oxidative signaling pathway in kidney tissues (Nrf2 Western blot, HO-1 ELISA, GPx activity) in mouse FSGS model", "details": "kidney tissue, osthole 30 mg/kg daily intraperitoneal, FIG. 6", "experimental": "as §1, with “analysis.” for “analysis. Mice urine samples were collected by metabolic cages. Proteinuria was first tested with test paper, following the measurement of protein concentration with BCA Protein Assay Kit (PIERCE), where the urinary protein index was illustrated by 24-hour proteinuria (urinary protein concentration/urinary creatinine concentration). In addition, blood was collected through the eye socket, after separation, serum specimen was obtained, which was absorbed into Fuji Ori-Chem Slide and measured by machine (Fuji Photo Film Co., Tokyo, Japan) to read the data.”\n(§2) Cytoplasmic and nuclear proteins were extracted from renal tissues using a Nuclear Extract Kit (Active Motif, Tokyo, Japan) according to the manufacturer's instructions. Protein extract was separated by electrophoresis and blotted. Target proteins were detected by Western blot analysis using primary antibodies against mouse Nrf2 (Santa Cruz), COX-2 (Santa Cruz), caspase-3 (Cell Signaling Technology, MA, USA), or caspase-9 (Cell Signaling Technology, MA, USA). […] Lastly, secondary antibodies were added and their signals were detected by chemiluminescence.\n(§3) Serum PEG2 and renal HO-1 levels in mice were determined by enzyme linked immunosorbent assay according to the manufacturer's (R&D, U.S.A., Active Motif) instructions.\nGPx activity in renal tissues was measured using a commercial glutathione peroxidase assay kit (Cayman, Mich., USA) according to the manufacturer's instructions. […]"}, "[6]": {"tested_on": "adriamycin induced FSGS mice", "test": "F4/80 immunostaining of monocyte/macrophage infiltration in kidney tissues in mouse FSGS model", "details": "osthole 30 mg/kg daily intraperitoneal; 28th day; FIG. 7", "experimental": "as §1, with “analysis.” for “analysis. Mice urine samples were collected by metabolic cages. Proteinuria was first tested with test paper, following the measurement of protein concentration with BCA Protein Assay Kit (PIERCE), where the urinary protein index was illustrated by 24-hour proteinuria (urinary protein concentration/urinary creatinine concentration).”, “immunohistochemistry” for “blood”, “also performed. […] A quantitative image analysis software Pax-it; […], Villa Park, Ill., USA) was used to analyze” for “collected through”, “staining results.” for “eye socket, after separation, serum specimen was obtained, which was absorbed into Fuji Ori-Chem Slide and measured by machine (Fuji Photo Film Co., Tokyo, Japan) to read the data.”"}, "[7]": {"tested_on": "NF-κB p65", "test": "NF-κB p65 immunostaining in kidney tissues in mouse FSGS model", "details": "osthole 30 mg/kg daily intraperitoneal; 28th day; FIG. 8", "experimental": "as §1, with “analysis.” for “analysis. Mice urine samples were collected by metabolic cages. Proteinuria was first tested with test paper, following the measurement of protein concentration with BCA Protein Assay Kit (PIERCE), where the urinary protein index was illustrated by 24-hour proteinuria (urinary protein concentration/urinary creatinine concentration).”, “immunohistochemistry” for “blood”, “also performed. […] A quantitative image analysis software Pax-it; […], Villa Park, Ill., USA) was used to analyze” for “collected through”, “staining results.” for “eye socket, after separation, serum specimen was obtained, which was absorbed into Fuji Ori-Chem Slide and measured by machine (Fuji Photo Film Co., Tokyo, Japan) to read the data.”"}, "[8]": {"tested_on": "COX-2 and PGE2", "test": "Renal COX-2 (Western blot) and serum PGE2 (ELISA) in mouse FSGS model", "details": "osthole 30 mg/kg daily intraperitoneal, 28th day", "experimental": "Experiments were performed on 8-week-old female BALB/c mice. The mice were separated into 3 groups at 8-weeks old. One of the groups were injected intravenously with normal saline to be used as normal controls, where the pathological control group and the osthole treated group were intravenously injected with a single dose of adriamycin (0.1 mg/10 g body weight) to induce FSGS, wherein the osthole treated group is intraperitoneally injected with osthole at a daily dose of 30 mg/kg body weight starting from 6 hours before FSGS induction by adriamycin. […]\nas §2, with “Protein extract was separated by electrophoresis and blotted.” left out\nas §3"}, "[9]": {"tested_on": "adriamycin induced FSGS mice", "test": "TUNEL measurement of apoptosis in kidney tissues in mouse FSGS model", "details": "osthole 30 mg/kg daily intraperitoneal; 28th day; FIG. 10", "experimental": "Experiments were performed on 8-week-old female BALB/c mice. The mice were separated into 3 groups at 8-weeks old. One of the groups were injected intravenously with normal saline to be used as normal controls, where the pathological control group and the osthole treated group were intravenously injected with a single dose of adriamycin (0.1 mg/10 g body weight) to induce FSGS, wherein the osthole treated group is intraperitoneally injected with osthole at a daily dose of 30 mg/kg body weight starting from 6 hours before FSGS induction by adriamycin. After intravenous injection of adriamycin, osthole was continuously given to the osthole treated group through intraperitoneal injection with a daily dose of 30 mg/kg body weight until they were sacrificed 28 days after FSGS induction. The pathological control group were given vehicle by intraperitoneal injection in the same fashion. Urine samples were collected in metabolic cages on days 3, 7, 14, and 21. Mice were sacrificed at day 7 or 28 post disease induction. Renal cortical tissues, spleen and serum were collected and stored properly for further analysis. TUNEL (Terminal deoxynucleotidyl transferase dUTP nick end labeling) was used for the detection of apoptosis. Kidney sections were prepared by fixing with formalin and embedded in paraffin. […]"}, "[10]": {"tested_on": "caspase-3, caspase-8 and caspase-9", "test": "Western blot analysis of caspase-3, caspase-8 and caspase-9 in kidney tissues in mouse FSGS model", "details": "kidney tissue", "experimental": "Experiments were performed on 8-week-old female BALB/c mice. The mice were separated into 3 groups at 8-weeks old. One of the groups were injected intravenously with normal saline to be used as normal controls, where the pathological control group and the osthole treated group were intravenously injected with a single dose of adriamycin (0.1 mg/10 g body weight) to induce FSGS, wherein the osthole treated group is intraperitoneally injected with osthole at a daily dose of 30 mg/kg body weight starting from 6 hours before FSGS induction by adriamycin. After intravenous injection of adriamycin, osthole was continuously given to the osthole treated group through intraperitoneal injection with a daily dose of 30 mg/kg body weight until they were sacrificed 28 days after FSGS induction. The pathological control group were given vehicle by intraperitoneal injection in the same fashion. Urine samples were collected in metabolic cages on days 3, 7, 14, and 21. Mice were sacrificed at day 7 or 28 post disease induction. Renal cortical tissues, spleen and serum were collected and stored properly for further analysis. Cytoplasmic and nuclear proteins were extracted from renal tissues using a Nuclear Extract Kit (Active Motif, Tokyo, Japan) according to the manufacturer's instructions. Protein extract was separated by electrophoresis and blotted. Target proteins were detected by Western blot analysis using primary antibodies against mouse Nrf2 (Santa Cruz), COX-2 (Santa Cruz), caspase-3 (Cell Signaling Technology, MA, USA), or caspase-9 (Cell Signaling Technology, MA, USA). Antibodies against histone H3 (Cell Signaling, CO, USA) or β-actin (Santa Cruz) were used as internal controls for the nuclear and cytosolic target proteins, respectively. Lastly, secondary antibodies were added and their signals were detected by chemiluminescence."}, "[11]": {"details": "osthole 30 mg/kg daily intraperitoneal, vs pathological control group, FIG. 11"}}, "data": [{"smiles": "COc1ccc2ccc(=O)oc2c1CC=C(C)C", "note": "[osthole]", "values": [{"measurement": "urine protein concentration (urine protein/urine creatinine ratio)", "setting": "[1]; 7th to 28th day, FIG. 1A", "value": "almost be completely suppressed"}, {"measurement": "blood urea nitrogen (BUN)", "setting": "[1]; 28th day, FIG. 1B", "value": "lower BUN and Cr concentration, similar to that of the normal control group"}, {"measurement": "serum creatinine (Cr)", "setting": "[1]; 28th day, FIG. 1C", "value": "lower BUN and Cr concentration, similar to that of the normal control group"}, {"measurement": "disease progression of glomerular sclerosis (histopathology)", "setting": "[2]", "value": "significantly suppress the disease progression of glomerular sclerosis"}, {"measurement": "fibrosis of the renal tissue (Sirius red staining)", "setting": "[3]; 28th day, FIG. 4", "value": "suppress fibrosis of the renal tissue, similar to the normal control group"}, {"measurement": "collagen IV expression in glomerular tissue (IHC)", "setting": "[3]; FIG. 3", "value": "significantly suppress collagen IV expression in glomerular tissue"}, {"measurement": "superoxide anion (ROS) in serum", "setting": "[4]; FIG. 5A", "value": "suppressed exhibition of such phenomenon"}, {"measurement": "superoxide anion (ROS) in kidney tissue", "setting": "[4]; FIG. 5B", "value": "suppressed exhibition of such phenomenon"}, {"measurement": "GPx activity", "setting": "[5]", "value": "significantly increase HO-1 expression and GPx activity"}, {"measurement": "HO-1 expression", "setting": "[5]", "value": "significantly increase HO-1 expression and GPx activity"}, {"measurement": "Nrf2 translocation into the nucleus", "setting": "[5]; vs pathological control group", "value": "significantly increase the Nrf2 translocation"}, {"measurement": "monocyte/macrophage infiltration (F4/80) in kidney tissues", "setting": "[6]", "value": "significantly reduced infiltration"}, {"measurement": "NF-κB p65 nuclear translocation in kidney tissues", "setting": "[7]", "value": "can be suppressed by osthole"}, {"measurement": "COX-2 expression level (renal)", "setting": "[8]; FIG. 9A-B", "value": "restored to levels similar to the normal control group"}, {"measurement": "PGE2 expression level (serum)", "setting": "[8]; FIG. 9C", "value": "restored to levels similar to the normal control group"}, {"measurement": "apoptosis in kidney tissues (TUNEL staining)", "setting": "[9]", "value": "can be suppressed by administration of osthole"}, {"measurement": "expression level of caspase-8", "setting": "[10]; data not shown", "value": "did not show significant difference"}, {"measurement": "caspase-3 in activated state (p17 fragment)", "setting": "[10]; [11]", "value": "suppressed significantly"}, {"measurement": "caspase-9 in activated state (p37 fragment)", "setting": "[10]; [11]", "value": "suppressed significantly"}]}]}
